{"source": "patent US20110053773A1", "about": "“METHODS OF IMPROVING NUTRITIONAL VALUE OF PLANTS” (UNIVERSITY OF TENNESSEE RESEARCH FOUNDATION, priority 2009, published 2011)", "key": {"basil 'Genovese'": {"tested_on": "basil 'Genovese'", "assay": "Visual injury of basil after insecticide, fungicide, PGRs, safeners (Example 4)", "details": "28 DA-A", "procedure,_shortened": "(§1)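 Greenhouse postemergence applications of chlorpyrifos, chlorothalonil, mepiquat-chloride, paclobutrazol, napthalic anhydride or isoxadifen-ethyl. Visual injury (phytotoxicity, chlorosis, stunting) scored 0–100%, 0 = no response, 100 = plant death. Harvest about 4 weeks after treatment; replicates pooled for protein, mineral, amino acid, fiber and fatty acid analysis.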"}, "basil ‘Genovese’": {"tested_on": "basil ‘Genovese’", "assay": "Yield, fresh weight of basil after insecticide, fungicide, PGRs and safeners (Example 4, Table 10)", "type": "in vivo", "details": "DA-A, check 31.8", "procedure,_shortened": "as §1"}, "kale 'Red Russian'": {"tested_on": "kale 'Red Russian'", "assay": "Content analysis of kale: protein, amino acids, fiber, fatty acids, minerals (Example 4, Tables 12-14)", "type": "in vivo", "details": "28 DA-A; for Alanine, Percent Increase over the Untreated Check (on a % dry matter basis) / Aspartic acid, Percent Increase over the Untreated Check (on a % dry matter basis) / Cysteine, Percent Increase over the Untreated Check (on a % dry matter basis) / Glutamic acid, Percent Increase over the Untreated Check (on a % dry matter basis) / Glycine, Percent Increase over the Untreated Check (on a % dry matter basis) / Iso-leucine, Percent Increase over the Untreated Check (on a % dry matter basis) / Leucine, Percent Increase over the Untreated Check (on a % dry matter basis) / Lysine, Percent Increase over the Untreated Check (on a % dry matter basis) / Methionine, Percent Increase over the Untreated Check (on a % dry matter basis) / Proline, Percent Increase over the Untreated Check (on a % dry matter basis) / Threonine, Percent Increase over the Untreated Check (on a % dry matter basis) / Total Amino acids, Percent Increase over the Untreated Check (on a % dry matter basis) / Total Protein, Percent Increase over the Untreated Check (on a % dry matter basis) / Valine, Percent Increase over the Untreated Check (on a % dry matter basis): chlorothalonil ###", "procedure,_shortened": "as §1"}, "[1]": {"details": "rates g ai/ha: chlropyrifos 1120, chlorothalonil 2630, paclobutrazol 3.23, mepiquat-chloride 12.3, Isoxadifen 8, Napthalic anhydride 264, + NIS 0.25 % v/v"}, "[2]": {"details": "rates g ai/ha: chlropyrifos 3370, chlorothalonil 7900, paclobutrazol 9.7, mepiquat-chloride 37, Isoxadifen 16, Napthalic anhydride 527, + NIS 0.25 % v/v"}, "[3]": {"details": "first-listed rate g ai/ha: chlropyrifos ###, paclobutrazol 3.2, mepiquat-chloride 12, + NIS 0.3 % v/v"}, "[4]": {"details": "rates g ai/ha: chlropyrifos 1120, chlorothalonil 2630, paclobutrazol 3.23, mepiquat-chloride 12.3, + NIS 0.25 % v/v"}, "[5]": {"details": "rates g ai/ha: chlropyrifos 3370, chlorothalonil 7900, paclobutrazol 9.7, mepiquat-chloride 37, + NIS 0.25 % v/v"}, "[6]": {"details": "second-listed rate g ai/ha: chlropyrifos ###, paclobutrazol 9.7, mepiquat-chloride 37, + NIS 0.3 % v/v"}}, "data": [{"smiles": "C[N+]1(C)CCCCC1", "note": "[mepiquat-chloride]", "values": [{"measurement": "Phytotoxicity Chlorosis", "setting": "basil 'Genovese'; [1]", "value": 2, "unit": "%"}, {"measurement": "Phytotoxicity General", "setting": "basil 'Genovese'; [1]", "value": 2, "unit": "%"}, {"measurement": "Phytotoxicity Stunting", "setting": "basil 'Genovese'; [1]", "value": 2, "unit": "%"}, {"measurement": "Phytotoxicity Chlorosis", "setting": "basil 'Genovese'; [2]", "value": 2, "unit": "%"}, {"measurement": "Phytotoxicity General", "setting": "basil 'Genovese'; [2]", "value": 0, "unit": "%"}, {"measurement": "Phytotoxicity Stunting", "setting": "basil 'Genovese'; [2]", "value": 0, "unit": "%"}, {"measurement": "Yield Fresh weight", "setting": "basil ‘Genovese’; [1]", "value": 36.9, "unit": "grams"}, {"measurement": "Yield Fresh weight", "setting": "basil ‘Genovese’; [2]", "value": 35.6, "unit": "grams"}, {"measurement": "Alanine, Percent Increase over the Untreated Check (on a % dry matter basis)", "setting": "kale 'Red Russian'; [3]", "value": 5, "unit": "% check"}, {"measurement": "Aspartic acid, Percent Increase over the Untreated Check (on a % dry matter basis)", "setting": "kale 'Red Russian'; [3]", "value": 6, "unit": "% check"}, {"measurement": "Cysteine, Percent Increase over the Untreated Check (on a % dry matter basis)", "setting": "kale 'Red Russian'; [3]", "value": 6, "unit": "% check"}, {"measurement": "Glutamic acid, Percent Increase over the Untreated Check (on a % dry matter basis)", "setting": "kale 'Red Russian'; [3]", "value": 11, "unit": "% check"}, {"measurement": "Glycine, Percent Increase over the Untreated Check (on a % dry matter basis)", "setting": "kale 'Red Russian'; [3]", "value": 4, "unit": "% check"}, {"measurement": "Iso-leucine, Percent Increase over the Untreated Check (on a % dry matter basis)", "setting": "kale 'Red Russian'; [3]", "value": 6, "unit": "% check"}, {"measurement": "Leucine, Percent Increase over the Untreated Check (on a % dry matter basis)", "setting": "kale 'Red Russian'; [3]", "value": 4, "unit": "% check"}, {"measurement": "Lysine, Percent Increase over the Untreated Check (on a % dry matter basis)", "setting": "kale 'Red Russian'; [3]", "value": 6, "unit": "% check"}, {"measurement": "Methionine, Percent Increase over the Untreated Check (on a % dry matter basis)", "setting": "kale 'Red Russian'; [3]", "value": 4, "unit": "% check"}, {"measurement": "Proline, Percent Increase over the Untreated Check (on a % dry matter basis)", "setting": "kale 'Red Russian'; [3]", "value": 8, "unit": "% check"}, {"measurement": "Threonine, Percent Increase over the Untreated Check (on a % dry matter basis)", "setting": "kale 'Red Russian'; [3]", "value": 6, "unit": "% check"}, {"measurement": "Total Amino acids, Percent Increase over the Untreated Check (on a % dry matter basis)", "setting": "kale 'Red Russian'; [3]", "value": 6, "unit": "% check"}, {"measurement": "Total Protein, Percent Increase over the Untreated Check (on a % dry matter basis)", "setting": "kale 'Red Russian'; [3]", "value": 4, "unit": "% check"}, {"measurement": "Valine, Percent Increase over the Untreated Check (on a % dry matter basis)", "setting": "kale 'Red Russian'; [3]", "value": 5, "unit": "% check"}, {"measurement": "ADF, Percent Increase Over the Untreated Check (on a % dry matter basis)", "setting": "kale 'Red Russian'; [4]", "value": 7, "unit": "% check"}, {"measurement": "Calcium, Percent Increase Over the Untreated Check (on a % dry matter basis)", "setting": "kale 'Red Russian'; [4]", "value": "−4", "unit": "% check"}, {"measurement": "Copper, Percent Increase Over the Untreated Check (on a % dry matter basis)", "setting": "kale 'Red Russian'; [4]", "value": 0, "unit": "% check"}, {"measurement": "Iron, Percent Increase Over the Untreated Check (on a % dry matter basis)", "setting": "kale 'Red Russian'; [4]", "value": "−5", "unit": "% check"}, {"measurement": "Magnesium, Percent Increase Over the Untreated Check (on a % dry matter basis)", "setting": "kale 'Red Russian'; [4]", "value": "−3", "unit": "% check"}, {"measurement": "Manganese, Percent Increase Over the Untreated Check (on a % dry matter basis)", "setting": "kale 'Red Russian'; [4]", "value": "−2", "unit": "% check"}, {"measurement": "NDF, Percent Increase Over the Untreated Check (on a % dry matter basis)", "setting": "kale 'Red Russian'; [4]", "value": "−2", "unit": "% check"}, {"measurement": "Phosphorous, Percent Increase Over the Untreated Check (on a % dry matter basis)", "setting": "kale 'Red Russian'; [4]", "value": 1, "unit": "% check"}, {"measurement": "Potassium, Percent Increase Over the Untreated Check (on a % dry matter basis)", "setting": "kale 'Red Russian'; [4]", "value": "−5", "unit": "% check"}, {"measurement": "Sodium, Percent Increase Over the Untreated Check (on a % dry matter basis)", "setting": "kale 'Red Russian'; [4]", "value": 4, "unit": "% check"}, {"measurement": "Zinc, Percent Increase Over the Untreated Check (on a % dry matter basis)", "setting": "kale 'Red Russian'; [4]", "value": "−5", "unit": "% check"}, {"measurement": "ADF, Percent Increase Over the Untreated Check (on a % dry matter basis)", "setting": "kale 'Red Russian'; [5]", "value": "−2", "unit": "% check"}, {"measurement": "Calcium, Percent Increase Over the Untreated Check (on a % dry matter basis)", "setting": "kale 'Red Russian'; [5]", "value": "−3", "unit": "% check"}, {"measurement": "Copper, Percent Increase Over the Untreated Check (on a % dry matter basis)", "setting": "kale 'Red Russian'; [5]", "value": "−6", "unit": "% check"}, {"measurement": "Iron, Percent Increase Over the Untreated Check (on a % dry matter basis)", "setting": "kale 'Red Russian'; [5]", "value": "−4", "unit": "% check"}, {"measurement": "Magnesium, Percent Increase Over the Untreated Check (on a % dry matter basis)", "setting": "kale 'Red Russian'; [5]", "value": 0, "unit": "% check"}, {"measurement": "Manganese, Percent Increase Over the Untreated Check (on a % dry matter basis)", "setting": "kale 'Red Russian'; [5]", "value": "−7", "unit": "% check"}, {"measurement": "NDF, Percent Increase Over the Untreated Check (on a % dry matter basis)", "setting": "kale 'Red Russian'; [5]", "value": "−7", "unit": "% check"}, {"measurement": "Phosphorous, Percent Increase Over the Untreated Check (on a % dry matter basis)", "setting": "kale 'Red Russian'; [5]", "value": 1, "unit": "% check"}, {"measurement": "Potassium, Percent Increase Over the Untreated Check (on a % dry matter basis)", "setting": "kale 'Red Russian'; [5]", "value": "−1", "unit": "% check"}, {"measurement": "Sodium, Percent Increase Over the Untreated Check (on a % dry matter basis)", "setting": "kale 'Red Russian'; [5]", "value": 4, "unit": "% check"}, {"measurement": "Zinc, Percent Increase Over the Untreated Check (on a % dry matter basis)", "setting": "kale 'Red Russian'; [5]", "value": "−10", "unit": "% check"}, {"measurement": "Alanine, Percent Increase over the Untreated Check (on a % dry matter basis)", "setting": "kale 'Red Russian'; [6]", "value": "−4", "unit": "% check"}, {"measurement": "Aspartic acid, Percent Increase over the Untreated Check (on a % dry matter basis)", "setting": "kale 'Red Russian'; [6]", "value": "−2", "unit": "% check"}, {"measurement": "Cysteine, Percent Increase over the Untreated Check (on a % dry matter basis)", "setting": "kale 'Red Russian'; [6]", "value": "−6", "unit": "% check"}, {"measurement": "Glutamic acid, Percent Increase over the Untreated Check (on a % dry matter basis)", "setting": "kale 'Red Russian'; [6]", "value": "−2", "unit": "% check"}, {"measurement": "Glycine, Percent Increase over the Untreated Check (on a % dry matter basis)", "setting": "kale 'Red Russian'; [6]", "value": "−7", "unit": "% check"}, {"measurement": "Iso-leucine, Percent Increase over the Untreated Check (on a % dry matter basis)", "setting": "kale 'Red Russian'; [6]", "value": "−3", "unit": "% check"}, {"measurement": "Leucine, Percent Increase over the Untreated Check (on a % dry matter basis)", "setting": "kale 'Red Russian'; [6]", "value": "−4", "unit": "% check"}, {"measurement": "Lysine, Percent Increase over the Untreated Check (on a % dry matter basis)", "setting": "kale 'Red Russian'; [6]", "value": "−1", "unit": "% check"}, {"measurement": "Methionine, Percent Increase over the Untreated Check (on a % dry matter basis)", "setting": "kale 'Red Russian'; [6]", "value": "−4", "unit": "% check"}, {"measurement": "Proline, Percent Increase over the Untreated Check (on a % dry matter basis)", "setting": "kale 'Red Russian'; [6]", "value": 2, "unit": "% check"}, {"measurement": "Threonine, Percent Increase over the Untreated Check (on a % dry matter basis)", "setting": "kale 'Red Russian'; [6]", "value": "−1", "unit": "% check"}, {"measurement": "Total Amino acids, Percent Increase over the Untreated Check (on a % dry matter basis)", "setting": "kale 'Red Russian'; [6]", "value": "−2", "unit": "% check"}, {"measurement": "Total Protein, Percent Increase over the Untreated Check (on a % dry matter basis)", "setting": "kale 'Red Russian'; [6]", "value": 0, "unit": "% check"}, {"measurement": "Valine, Percent Increase over the Untreated Check (on a % dry matter basis)", "setting": "kale 'Red Russian'; [6]", "value": "−2", "unit": "% check"}]}]}
